System: récepteurs 5HT - 3
Assay: Inhibition of the Bezold-Jarisch effect (reflex bradycardia after i.v. serotonin) in the anaesthetised rat
Type: in vivo
Excerpt: Cette propriété est indicatrice d'un effet antagoniste des récepteurs 5HT - 3.
Cette étude est réalisée sur des rats Charles River d'un poids compris entre 350 et 400 g anesthésiés par une dose de 1,25 g.kg⁻¹ d'uréthanne administré intrapéritonéalement. La pression artérielle est enregistrée au niveau d'une artère carotide au moyen d'une cellule de pression Statham P 23 dB. La fréquence cardiaque est enregistrée à partir de la pression artérielle en utilisant un cardiotachymètre. Les enregistrements sont réalisés sur un enregistreur GOULD 2400. Un cathéter est placé dans la veine jugulaire et atteint l'oreillette droite de l'animal. L'effet Bezold-Jarisch est provoqué par une injection rapide de sérotonine à la dose de 40 µg/kg par voie intraveineuse dans l'oreillette droite. Le ralentissement cardiaque est associé à une chute de la pression artérielle qui provient de la stimulation des fibres afférentes vagales principalement localisées dans le ventricule droit.
Les produits à tester sont administrés par voie intraveineuse aux doses de 10 µg/kg, 100 µg/kg et 1 mg/kg. Un effet Bezold-Jarisch est provoqué 5, 15, 30, 45, 60, 90 et 120 minutes après injection des produits testés.
Le pourcentage d'inhibition de la bradycardie réflexe est évalué à partir du tracé de fréquence cardiaque. Les pourcentages d'inhibition provoqués par le produit de l'invention, ses isomères, des produits structuralement voisins, ainsi que par le produit de référence ICS 205930 sont indiqués dans le tableau I qui donne l'inhibition en % du réflexe Bezold chez le rat en fonction du temps; tous les produits ont été administrés par voie i.v à la même dose de 10 µg/kg.; les tests ont été réalisés sur 8 animaux.

CN1[C@@H]2CC[C@H]1C[C@@H](OC(=O)c1c[nH]c3ccccc13)C2 [ICS 205-930]
Inhibition % après 15 min. (inhibition of reflex bradycardia (Bezold reflex), rat, i.v. 10 µg/kg, 15 min after injection, serotonin 40 µg/kg i.v., 8 animals): 79%
Inhibition % après 30 min. (inhibition of reflex bradycardia (Bezold reflex), rat, i.v. 10 µg/kg, 30 min after injection, serotonin 40 µg/kg i.v., 8 animals): 65%
Inhibition % après 60 min. (inhibition of reflex bradycardia (Bezold reflex), rat, i.v. 10 µg/kg, 60 min after injection, serotonin 40 µg/kg i.v., 8 animals): 14%
Inhibition % après 120 min. (inhibition of reflex bradycardia (Bezold reflex), rat, i.v. 10 µg/kg, 120 min after injection, serotonin 40 µg/kg i.v., 8 animals): inactif

CN1C2CCC1CC(OC(=O)c1cccc3ccsc13)C2 (stereo not drawn) [Exemple 1, Chlorhydrate d'endo [(méthyl - 8 aza - 8 bicyclo [3.2.1]octyl - 3)oxycarbonyl] - 7 benzo [b] thiphène]
effet Bezold-Jarisch (bradycardie et hypotension après injection de sérotonine) (rat, i.v., doses between 10 µg/kg and 1 mg/kg, result in words): antagonise de façon intense et prolongée
activité antagoniste 5HT₃ (summary in words, refers to tableau I): actif

— EP0294292A2, “Derivative of benzo[b]thiophene-7-carboxylic acid, process for its preparation and pharmaceutical compositions containing it” (ADIR ET COMPAGNIE, priority 1987, dated 1988)
